From patent publication US20240116912A1, “COMPOUNDS AND METHODS FOR MODULATING FXR” (Terns Pharmaceuticals, Inc., priority 2020, published 2024)

Columns and labels:
[1] = target: full length human FXR protein (Homo sapiens (Human), UniProt Q96RI1); test: FXR cellular assay (FXR-SRCP β-gal enzyme fragment complementation in CHO-K1 cells, chemiluminescence); format: cell-based; conditions: CHO-K1 cells with SRCP-EA and ProLink-labeled FXR, 0-10 micromolar compound, 37° C. for 6h, read-out: EC50 FXR-cell Luminescence/
Procedure, shortened: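 CHO-K1 cells stably expressing ProLink-tagged full-length FXR and SRCP-EA treated with compound (0-10 micromolar, 1% DMSO) for 6 h at 37 °C. Ligand-driven FXR-coactivator binding reconstitutes β-gal; chemiluminescence read after 1 h detection reagent at room temperature.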

[2] = target: ligand binding domain (LBD) of recombinant human FXR (Homo sapiens (Human), UniProt Q96RI1); test: FXR cell free coactivator (SRC-1) recruitment assay, TR-FRET; conditions: FXR LBD (amino acids 244-476) with labeled SRC-1 domain, 25° C. for 60 minutes, activity relative to CDCA maximum; read-out: EC50 FXR- Biochemical TR-FRET/μM
Procedure, shortened: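 Purified SF9-expressed FXR LBD (aa 244-476) was incubated with compounds (0-10 micromolar) and labeled SRC-1 interaction domain in TR-FRET coregulator buffer G, 60 min at 25° C, 1.2% DMSO. Activity at each concentration was taken as percent of maximal CDCA response to build dose-response curves.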

Chain of ligand binding domain (LBD) of recombinant human FXR (Q96RI1 254-486): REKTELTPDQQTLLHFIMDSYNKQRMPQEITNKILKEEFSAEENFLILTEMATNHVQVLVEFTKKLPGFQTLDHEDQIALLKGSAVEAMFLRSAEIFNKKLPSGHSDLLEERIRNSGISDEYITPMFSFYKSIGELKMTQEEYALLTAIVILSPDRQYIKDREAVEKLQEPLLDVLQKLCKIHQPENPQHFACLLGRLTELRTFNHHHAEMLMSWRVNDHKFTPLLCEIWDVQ
Chain of ligand binding domain (LBD) of recombinant human FXR (Q15788 whole entry partner, the tested form may be a part): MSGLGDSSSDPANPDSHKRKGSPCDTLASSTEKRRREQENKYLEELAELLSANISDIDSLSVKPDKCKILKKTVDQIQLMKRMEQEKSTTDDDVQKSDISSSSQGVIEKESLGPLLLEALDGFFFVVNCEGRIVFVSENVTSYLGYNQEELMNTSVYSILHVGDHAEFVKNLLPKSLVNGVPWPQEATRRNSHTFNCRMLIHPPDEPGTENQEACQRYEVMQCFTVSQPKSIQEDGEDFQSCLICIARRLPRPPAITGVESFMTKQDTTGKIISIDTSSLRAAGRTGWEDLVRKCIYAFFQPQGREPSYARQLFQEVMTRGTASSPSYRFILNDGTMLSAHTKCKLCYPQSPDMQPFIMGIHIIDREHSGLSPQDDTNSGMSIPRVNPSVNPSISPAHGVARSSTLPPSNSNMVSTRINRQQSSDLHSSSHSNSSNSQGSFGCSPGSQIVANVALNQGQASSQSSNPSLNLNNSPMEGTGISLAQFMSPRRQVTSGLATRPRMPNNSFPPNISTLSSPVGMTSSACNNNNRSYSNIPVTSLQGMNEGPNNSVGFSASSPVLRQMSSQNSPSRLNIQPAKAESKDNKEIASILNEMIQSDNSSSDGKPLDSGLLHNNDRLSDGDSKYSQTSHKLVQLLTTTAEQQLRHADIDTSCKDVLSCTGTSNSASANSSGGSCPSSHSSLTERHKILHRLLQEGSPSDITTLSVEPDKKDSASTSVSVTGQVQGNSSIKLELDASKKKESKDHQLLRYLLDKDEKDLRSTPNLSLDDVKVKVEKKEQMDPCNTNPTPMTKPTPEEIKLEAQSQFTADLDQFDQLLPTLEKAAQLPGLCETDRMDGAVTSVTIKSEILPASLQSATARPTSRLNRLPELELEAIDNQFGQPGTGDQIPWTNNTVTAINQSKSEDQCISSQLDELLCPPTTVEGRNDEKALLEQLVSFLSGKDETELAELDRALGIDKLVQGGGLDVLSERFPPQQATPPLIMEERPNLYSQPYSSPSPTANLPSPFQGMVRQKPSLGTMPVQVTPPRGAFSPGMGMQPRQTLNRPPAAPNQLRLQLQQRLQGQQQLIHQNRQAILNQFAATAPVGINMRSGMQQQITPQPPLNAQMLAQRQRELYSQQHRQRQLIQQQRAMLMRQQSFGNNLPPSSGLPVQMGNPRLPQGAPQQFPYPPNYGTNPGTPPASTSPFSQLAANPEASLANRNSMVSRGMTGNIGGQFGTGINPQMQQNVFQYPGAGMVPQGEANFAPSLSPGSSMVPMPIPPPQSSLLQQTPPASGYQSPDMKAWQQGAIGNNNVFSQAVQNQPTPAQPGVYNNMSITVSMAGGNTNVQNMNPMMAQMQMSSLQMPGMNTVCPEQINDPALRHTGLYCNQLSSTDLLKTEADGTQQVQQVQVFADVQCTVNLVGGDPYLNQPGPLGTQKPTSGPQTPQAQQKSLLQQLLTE
Chain of full length human FXR protein (Q96RI1 whole entry, the tested form may be a part): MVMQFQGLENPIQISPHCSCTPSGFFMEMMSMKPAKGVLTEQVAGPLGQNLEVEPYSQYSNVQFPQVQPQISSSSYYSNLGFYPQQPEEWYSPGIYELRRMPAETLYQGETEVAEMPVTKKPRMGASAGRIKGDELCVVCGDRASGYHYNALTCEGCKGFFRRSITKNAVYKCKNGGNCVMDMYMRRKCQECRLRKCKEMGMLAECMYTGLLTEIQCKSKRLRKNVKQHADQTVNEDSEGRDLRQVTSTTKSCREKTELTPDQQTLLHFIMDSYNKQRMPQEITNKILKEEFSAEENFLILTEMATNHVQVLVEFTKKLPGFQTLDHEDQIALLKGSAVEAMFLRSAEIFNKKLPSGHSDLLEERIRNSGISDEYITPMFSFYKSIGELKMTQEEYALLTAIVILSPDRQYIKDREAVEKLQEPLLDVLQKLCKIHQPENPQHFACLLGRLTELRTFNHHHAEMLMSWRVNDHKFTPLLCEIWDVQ

Row | EC50 [1] [nM] | EC50 [2] [µM] | SMILES
1 | 398 | 0.114 | C[C@H]1C[C@H](OCc2c(-c3c(Cl)cccc3Cl)noc2C2CC2)CCN1c1ccc(-c2noc(=O)[nH]2)cc1 [Example 20, 3-(4-((2S,4R)-4-((5-cyclopropyl-3-(2,6-dichlorophenyl)isoxazol-4-yl)methoxy)-2-methylpiperidin-1-yl)phenyl)-1,2,4-oxadiazol-5(4H)-one]
2 | 779 | 0.104 | O=c1cc(-c2ccc(N3CCC(OCc4c(-c5ccccc5OC(F)(F)F)noc4C4CC4)CC3)nc2)o[nH]1 [Example 60, 5-(6-(4-((5-cyclopropyl-3-(2-(trifluoromethoxy)phenyl)isoxazol-4-yl)methoxy)piperidin-1-yl)pyridin-3-yl)isoxazol-3(2H)-one]
3 | 54.9 | 0.0045 | C[C@@H]1C[C@H](OCc2c(-c3ccccc3Cl)noc2C2CC2)CCN1c1ccc(-c2noc(=O)[nH]2)cn1 [Example 72, 3-(6-((2R,4R)-4-((3-(2-chlorophenyl)-5-cyclopropylisoxazol-4-yl)methoxy)-2-methylpiperidin-1-yl)pyridin-3-yl)-1,2,4-oxadiazol-5(4H)-one]
